Data reported in patent publication US20090143279A1 (priority 2007, published 2009).
Like-named read-outs stand apart in the source and are kept apart here.

How the values were obtained:
[1] = system: C2C12 myotubes
[2] = system: mtOXPHOS transcripts; assay type: cell-based, mouse
[3] = system: reactive oxygen species; assay type: cell-based, mouse; conditions: for dose at which ROS levels decreased: retest at 20 nM to 20 μM, FIG. 6a
[4] = system: cytochrome c; assay type: cell-based, mouse
[5] = system: Ppargc1a; assay: Quantitative PCR of Ppargc1a expression; assay type: cell-based, mouse; conditions: 5 μM deoxysappanone B or 1 μM mebendazole, FIG. 6c
Description: (§1) (a) Compounds indicated in FIG. 4 were retested at 20 nM, 200 nM, 2 μM and 20 μM. Gene expression levels are represented as a row-normalized heat map, with negative controls (DMSO treatment) and positive controls (PGC-1α treatment) shown. Dose-response curves for ROS levels and viability are also provided, where the y-axis is the composite Z-score. Shaded area indicates the noise envelope (P<0.05). Data shown are the results of four biological replicates per concentration. […] (c) Quantitative PCR measurement of Ppargc1a gene expression, in response to either DMSO alone (Con), 5 μM deoxysappanone B (deo) or 1 μM mebendazole (meb). (d) Quantitative PCR measurement of the nuclear OXPHOS gene Atp5a1. Cells were either treated with compound alone (black bars) or in combination with […] of the ERRa inverse agonist XCT790 (gray bars). (e) Quantitative PCR measurement of Sod2, which encodes the ROS scavenger MnSOD, as in (d). Means and s.d. of expression data are the result of four biological replicates.
(§2) Gene expression. […]. The cDNA was then used for real-time PCR quantification of products for mouse Atp5a1 (Mm00431960_ml), Sod2 (MnSOD; Mm01313000_m1) and Ppargc1a (Mm00447183_m1), with Hprt1 (Mm03024075_m1) serving as an internal control, using TaqMan gene-expression assays (Applied Biosystems).

[6] = system: OXPHOS gene expression; assay type: cell-based, mouse; conditions: for dose at which OXPHOS expression increased: retest at 20 nM to 20 μM, FIG. 6a
[7] = system: microtubules; assay: Tubulin immunofluorescence; assay type: cell-based, mouse; conditions: C2C12 myotubes, 48 hours, 10 nM to 10 μM, FIG. 7
Description: Tubulin immunofluorescence. […] Cells were washed once in 50 μl PBSTB2 (PBS with 0.1% (vol/vol) Tween-20 and 2% (wt/vol) BSA) and blocked in PBSTB2 for 1 h at room temperature or overnight at 4° C. Cells were incubated with an anti-α-tubulin (Sigma-Aldrich) antibody, 1:1,000 in PBSTB2, for 1 h at room temperature, and then washed three times with PBSTB2. […] Cells were visualized using an automated microscope (IX-Micro, Molecular Devices).

[8] = system: Atp5a1; assay: Quantitative PCR of Atp5a1 (nuOXPHOS) expression; assay type: cell-based, mouse; conditions: for increase of Atp5a1 expression: compound alone, FIG. 6d
Description: as §1
(§3) FIG. 8 show measurements of the coupling between nuclear and mitochondrial OXPHOS gene expression. (a) A two-dimensional plot of the composite Z-scores for nuOXPHOS and mtOXPHOS expression is shown. (b) Row-normalized heat map displaying the top 15 compounds in each quadrant (I-IV). Heat map of nuOXPHOS and mtOXPHOS expression is shown along with ATP levels. (c) Real-time PCR validation of select compounds at the indicated doses, using Atp5a1 (nuOXPHOS) and mt-Co1 (mtOXPHOS) normalized to Hprt1 (internal control). Values indicate average fold change from mock-treated (DMSO) wells ±s.d. in four biological replicates.
as §2

[9] = system: cellular dehydrogenase activity
[10] = system: mitochondrial membrane potential; assay type: cell-based, mouse
[11] = system: nuOXPHOS transcripts; assay type: cell-based, mouse
[12] = system: mt-Co1; assay: Real-time PCR of mt-Co1 (mtOXPHOS) expression; assay type: cell-based, mouse; conditions: 1 μM, FIG. 8c
Description: as §3, §2

[13] = system: Sod2; assay: Quantitative PCR of Sod2 (MnSOD) expression; assay type: cell-based, mouse; conditions: in combination with compound, FIG. 6e
Description: as §1, §2

[14] = normalized composite Z-score vs mock-treated (DMSO) wells, Conc 20 μM
[15] = Table 7, C2C12 myotubes, 48 h, composite Z-score
[16] = Table 3, differentiated C2C12 myotubes, 48 h treatment, composite Z-score vs DMSO
[17] = Table 6, C2C12 myotubes, 48 h, composite Z-score
[18] = composite Z-score vs DMSO, Conc 14.22 μM
[19] = composite Z-score vs DMSO, Conc 20 μM
[20] = 13.54 μM, composite Z-score vs DMSO
[21] = 20 μM, composite Z-score vs DMSO

COc1ccc2c(c1)OCC(Cc1ccc(O)c(OC)c1)C2=O (stereo not shown) [deoxysappanone b 7,3′-dimethyl ether, reference compound]
Viability [1, 14]: −1.120
mito-OXPHOS Z [2, 15]: 1.38
mitoOX [2, 14]: 1.383
ROS Zscore [3, 16]: −1.712
ROS Zscore [3, 17]: −1.712
ROS [3, 14]: −1.712
dose at which ROS levels decreased [3]: 2 µM
cyt c [4, 14]: −0.951
expression of Ppargc1α [5]: approximately threefold
GEHTS_Zscore [6, 16]: 2.577
GEHTS_Zscore [6, 17]: 2.577
GE-HTS [6, 14]: 2.118
dose at which OXPHOS expression increased [6]: 2 µM
potency required for microtubule disruption [7]: the same as that required to affect OXPHOS expression and ROS level
increase of Atp5a1 expression [8]: 20%
MTT [9, 14]: −2.870
ΔΨm [10, 14]: −0.637
nucOXPHOS Z [11, 15]: 2.25
nucOX [11, 14]: 2.250

C[C@@H]1C[C@@H]([C@H](O)CC2CC(=O)NC(=O)C2)C(=O)[C@@H](C)C1 [Cycloheximide, reference compound]
mtOXPHOS decreased [12]: 2.4 fold
Viability [1, 18]: −2.540
Viability [1, 19]: −2.804
mitoOX [2, 18]: −4.179
mitoOX [2, 19]: −5.637
ROS [3, 18]: −3.415
ROS [3, 19]: −2.628
cyt c [4, 18]: −1.378
cyt c [4, 19]: −2.123
GE-HTS [6, 18]: −0.504
GE-HTS [6, 19]: −1.482
nuOXPHOS elevated ([8]; 1 μM, real-time PCR, FIG. 8c): 1.3 fold
MTT [9, 18]: −3.550
MTT [9, 19]: −3.499
ΔΨm [10, 18]: 2.318
ΔΨm [10, 19]: 2.759
nucOX [11, 18]: 1.354
nucOX [11, 19]: 0.688
nuOXPHOS expression ([11]; screen, relative to mtOXPHOS, in words): preferentially increase

COC(=O)Nc1nc2ccc(C(=O)c3ccccc3)cc2[nH]1 [mebendazole, methyl[5-benzoyl-benzimidazol-2-carbamate], reference compound]
Viability [1, 20]: 0.064
Viability [1, 21]: 0.512
mitoOX [2, 20]: 0.398
mitoOX [2, 21]: 0.824
ROS [3, 20]: −0.791
ROS [3, 21]: −1.003
ROS Zscore [3, 16]: −1.003
ROS levels ([3]; primary screen, in words): suppressing ROS levels
dose at which ROS levels decreased [3]: 2 µM
cyt c [4, 20]: −0.685
cyt c [4, 21]: −1.473
expression of Ppargc1α [5]: approximately threefold
GE-HTS [6, 20]: 0.013
GE-HTS [6, 21]: 1.160
GEHTS_Zscore [6, 16]: 2.846
OXPHOS expression ([6]; primary screen, in words): boost OXPHOS expression
dose at which OXPHOS expression increased [6]: 2 µM
increase of Atp5a1 expression [8]: 20%
MTT [9, 20]: −2.797
MTT [9, 21]: −2.060
ΔΨm [10, 20]: −0.054
ΔΨm [10, 21]: −0.434
nucOX [11, 20]: −0.200
nucOX [11, 21]: 1.212

COc1cc(/C=C(\C#N)C(=O)Nc2nnc(C(F)(F)F)s2)ccc1OCc1ccc(C(F)(F)F)cc1C(F)(F)F [XCT790]
effect of XCT790 on compound-induced MnSOD increase [13]: suppressible
effect of XCT790 on compound-induced Atp5a1 increase ([8]; in combination with mebendazole or deoxysappanone B, 5 mM XCT790, FIG. 6d): completely inhibited
